Assays:
Type in all cases: functional, cell-based
[1] = biological target: Adenosine receptor A2a (Homo sapiens, UniProt P29274); experiment: Agonist activity at human A2A receptor expressed in Flp-In-CHO cells assessed as cAMP accumulation incubated for 30 mins by LANCE cAMP assay
[2] = biological target: T1, Adenosine receptor A1 (Homo sapiens, UniProt P30542); experiment: Agonist activity at human A1 receptor expressed in Flp-In-CHO cells assessed as inhibition of forskolin stimulated cAMP accumulation incubated for 30 mins by LANCE cAMP assay
T1 sequence (P30542 whole entry): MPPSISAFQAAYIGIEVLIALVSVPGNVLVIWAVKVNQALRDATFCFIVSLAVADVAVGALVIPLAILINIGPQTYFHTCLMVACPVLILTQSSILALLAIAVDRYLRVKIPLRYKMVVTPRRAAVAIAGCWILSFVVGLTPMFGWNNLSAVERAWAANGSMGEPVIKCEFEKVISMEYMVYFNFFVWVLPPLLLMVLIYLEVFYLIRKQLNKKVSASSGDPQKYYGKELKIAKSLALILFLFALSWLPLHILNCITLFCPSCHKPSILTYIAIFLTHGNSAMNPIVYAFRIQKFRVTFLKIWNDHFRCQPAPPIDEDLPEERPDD

[3] = biological target: T1, Adenosine receptor A1; experiment: Agonist activity at human A1 receptor expressed in Flp-In-CHO cells assessed as stimulation of calcium mobilization by calcium mobilization assay
[4] = biological target: T2, Adenosine receptor A2b (Homo sapiens, UniProt P29275); experiment: Agonist activity at human A2B receptor expressed in Flp-In-CHO cells assessed as cAMP accumulation incubated for 10 mins in presence of forskolin by LANCE cAMP assay
T2 sequence (P29275 whole entry): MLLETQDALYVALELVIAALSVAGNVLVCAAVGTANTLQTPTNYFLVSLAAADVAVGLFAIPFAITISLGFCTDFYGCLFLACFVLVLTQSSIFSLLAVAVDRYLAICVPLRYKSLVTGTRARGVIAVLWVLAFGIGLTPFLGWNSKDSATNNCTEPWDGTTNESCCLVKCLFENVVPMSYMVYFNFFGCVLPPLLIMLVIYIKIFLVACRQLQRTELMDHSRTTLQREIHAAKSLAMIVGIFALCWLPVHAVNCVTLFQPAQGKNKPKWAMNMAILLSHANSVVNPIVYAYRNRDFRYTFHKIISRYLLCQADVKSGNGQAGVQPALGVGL

Adenosine receptor A2a, sequence (P29274 whole entry): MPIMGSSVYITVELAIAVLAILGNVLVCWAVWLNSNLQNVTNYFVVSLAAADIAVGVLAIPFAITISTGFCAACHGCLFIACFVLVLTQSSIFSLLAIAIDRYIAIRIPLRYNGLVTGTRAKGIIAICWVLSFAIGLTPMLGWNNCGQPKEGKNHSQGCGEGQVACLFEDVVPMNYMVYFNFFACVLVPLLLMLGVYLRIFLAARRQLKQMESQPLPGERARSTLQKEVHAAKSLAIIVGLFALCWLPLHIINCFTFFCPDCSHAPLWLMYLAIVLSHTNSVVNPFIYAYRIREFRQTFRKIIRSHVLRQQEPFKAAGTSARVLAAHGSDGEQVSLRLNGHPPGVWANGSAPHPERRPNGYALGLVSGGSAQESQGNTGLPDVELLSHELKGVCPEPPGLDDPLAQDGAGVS

| EC50 [1] [µM] | EC50 [2] [µM] | EC50 [3] [µM] | EC50 [4] [µM] | SMILES |
| --- | --- | --- | --- | --- |
| 0.389 |  |  |  | Nc1sc(-c2ccc(C(=O)NCCCCCCNc3ncnc4c3ncn4[C@@H]3O[C@H](CO)[C@@H](O)[C@H]3O)cc2)c(-c2cccc(C(F)(F)F)c2)c1C(=O)c1ccccc1 |
| 0.363 | 0.55 | > 10 | 0.0525 | Nc1sc(-c2ccc(C(=O)NCCc3ccc(CCNc4ncnc5c4ncn5[C@@H]4O[C@H](CO)[C@@H](O)[C@H]4O)cc3)cc2)c(-c2cccc(C(F)(F)F)c2)c1C(=O)c1ccccc1 |
| 0.741 |  |  |  | Nc1sc(-c2ccc(C(=O)NCCC#Cc3ccc(Nc4ncnc5c4ncn5[C@@H]4O[C@H](CO)[C@@H](O)[C@H]4O)cc3)cc2)c(-c2cccc(C(F)(F)F)c2)c1C(=O)c1ccccc1 |

Reference: ChEMBL document CHEMBL5120905, “Examining the Role of the Linker in Bitopic N6-Substituted Adenosine Derivatives Acting as Biased Adenosine A1 Receptor Agonists” (J Med Chem, 2022)
